The subject of data set [1] is human TERT expression (hTERT mRNA). Kind of data set: Quantitative real-time RT-PCR of hTERT mRNA expression (Ct, transcripts) in compound-treated cells. The class given is cell-based. The method in brief:
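Read-out is cycle threshold, the cycle at which probe fluorescence released by Taq 5′-nuclease activity crosses a set level; Ct falls as hTERT mRNA rises. cDNA of treated and untreated cells was compared, with starting transcripts quantified against a known-cDNA standard curve.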
For orientation: Quantitative PCR measures a nucleic acid by following its amplification.

For the next data set, the system named is viable cells in culture. Kind of data set: Cell viability assay (CellTiter-Glo Luminescent Cell Viability Assay, ATP quantitation, percent of vehicle control). On the technique in general: In ATP-based viability assays light output follows the ATP content of the culture.

Description for viable cells in culture: Cell viability is determined using a homogeneous method, such as CellTiter-Glo® Luminescent Cell Viability Assay (Promega Corporation, Madison, WI.) to determine the number of viable cells in culture These assays are based on quantitation of the ATP present, which signals the presence of metabolically active cells. Luminescent values of compound treated cells are compared to that of cells treated with vehicle alone to determine the average cell viability as a percent of control.

In the case of `COC(=O)CSc1nnc(-c2sc3cc(Cl)ccc3c2Cl)n1C` [compound 1435], the “Average Number of hTERT Transcripts” value in data set [1] is listed as 48.10. Moreover, the “Average Cell Viability after 24 Hours (% DMSO)” value in the data set with viable cells in culture was 60.23 % DMSO.

For `O=C(Nc1ccccc1OC(F)F)C(c1ccccc1)c1ccccc1` [compound 1436], the “Average Number of hTERT Transcripts” value in data set [1] was 8.14. For the same molecule, in the data set on viable cells in culture, the “Average Cell Viability after 24 Hours (% DMSO)” value turned out to be 82.48 % DMSO.

For `COC(=O)COc1ccc(S(=O)(=O)N2CCCC2)cc1Cl` [compound 1437], the “Average Number of hTERT Transcripts” value in data set [1] worked out at 22.13. The “Average Cell Viability after 24 Hours (% DMSO)” value in the data set with viable cells in culture stood at 79.26 % DMSO.

Regarding `O=C(CC(NC1CCCCC1)C(=O)O)Nc1cccc([N+](=O)[O-])c1` (stereo not shown) [compound 1438], in data set [1], the “Average Number of hTERT Transcripts” value turned out to be 8.29. Also, the “Average Cell Viability after 24 Hours (% DMSO)” value with viable cells in culture is recorded as 97.89 % DMSO.

For `CC(=O)c1ccc(NC(=S)Nc2ccc(Br)c(Cl)c2)cc1` [compound 1439], in data set [1], the “Average Number of hTERT Transcripts” value stood at 11.63. Besides, the “Average Cell Viability after 24 Hours (% DMSO)” value in the data set with viable cells in culture amounted to 51.61 % DMSO.

In the case of `COC(=O)c1sc(NC(=S)NCc2cccnc2)c(C(=O)OC)c1C` [compound 1440], the “Average Number of hTERT Transcripts” value in data set [1] is reported as 13.85. Also, in the data set on viable cells in culture, the “Average Cell Viability after 24 Hours (% DMSO)” value is reported as 99.11 % DMSO.

For the molecule `CCOC(=O)N1CCN(C(=O)CCc2ccc(S(=O)(=O)NCCc3ccccc3)cc2)CC1` [compound 1441], the “Average Number of hTERT Transcripts” value in data set [1] was determined as 5.06. In addition, the “Average Cell Viability after 24 Hours (% DMSO)” value in the data set with viable cells in culture came out at 101.03 % DMSO.

On to `CCOc1ccc(NC(=O)Nc2cccc(C(C)=O)c2)c([N+](=O)[O-])c1` [compound 1442], for which the “Average Number of hTERT Transcripts” value in data set [1] was 7.65. Also, the “Average Cell Viability after 24 Hours (% DMSO)” value in the data set on viable cells in culture stood at 84.87 % DMSO.

Take `Cc1ccc2nc(-c3ccc(NC(=S)Nc4cccc([N+](=O)[O-])c4)cc3)sc2c1` [compound 1443]: the “Average Number of hTERT Transcripts” value in data set [1] was 7.82. In addition, in the data set with viable cells in culture, the “Average Cell Viability after 24 Hours (% DMSO)” value stood at 77.16 % DMSO.

For `CC(=O)Oc1ccc2c(=O)c(Oc3ccc4ccccc4c3)c(C(F)(F)F)oc2c1` [compound 1444], in data set [1], the “Average Number of hTERT Transcripts” value is listed as 16.54. Further, in the data set with viable cells in culture, the “Average Cell Viability after 24 Hours (% DMSO)” value is listed as 64.02 % DMSO.

Take `CCOC(=O)C(=O)Nc1ccc(S(=O)(=O)N2CC(C)CC(C)C2)cc1` (stereo not shown) [compound 1445]: the “Average Number of hTERT Transcripts” value in data set [1] came to 6.33. Also, the “Average Cell Viability after 24 Hours (% DMSO)” value in the data set on viable cells in culture was found to be 87.20 % DMSO.

Consider `CC(C)(C)C(=O)Nc1nc2c(Cl)c(Cl)ccc2s1` [compound 1446], for which the “Average Number of hTERT Transcripts” value in data set [1] came out at 46.62. In the data set with viable cells in culture, the “Average Cell Viability after 24 Hours (% DMSO)” value is recorded as 65.61 % DMSO.

For the molecule `O=C(Cn1cnc2ccccc21)NCCCN1CCOCC1` [compound 1447], in data set [1], the “Average Number of hTERT Transcripts” value was determined as 5.30. In addition, in the data set with viable cells in culture, the “Average Cell Viability after 24 Hours (% DMSO)” value was 96.56 % DMSO.

On to `FC(F)(F)c1cccc(NC(=S)Nc2ccc(Cc3ccncc3)cc2)c1` [compound 1449], for which the “Average Number of hTERT Transcripts” value in data set [1] was 48.57. The “Average Cell Viability after 24 Hours (% DMSO)” value in the data set with viable cells in culture was determined as 53.58 % DMSO.

As to `COc1cc(CNC2CCCC2)ccc1OCCO` [compound 1450], in data set [1], the “Average Number of hTERT Transcripts” value was found to be 8.24. Also, the “Average Cell Viability after 24 Hours (% DMSO)” value with viable cells in culture amounted to 96.61 % DMSO.

As to `COc1cc(C)ccc1OC1CCNCC1` [compound 1451], the “Average Number of hTERT Transcripts” value in data set [1] turned out to be 5.80. For the same molecule, the “Average Cell Viability after 24 Hours (% DMSO)” value in the data set on viable cells in culture came out at 96.84 % DMSO.

On to `O=C(OCc1cc(=O)n2nc(C3CC3)sc2n1)c1ccc(NC(=O)c2ccco2)cc1` [compound 1452], for which the “Average Number of hTERT Transcripts” value in data set [1] came to 7.45. Also, the “Average Cell Viability after 24 Hours (% DMSO)” value in the data set with viable cells in culture turned out to be 81.09 % DMSO.

With `CC(C)(C)NC(=O)NCc1nnnn1-c1ccccc1` [compound 1453], the “Average Number of hTERT Transcripts” value in data set [1] is 11.03. Besides, in the data set with viable cells in culture, the “Average Cell Viability after 24 Hours (% DMSO)” value is recorded as 97.19 % DMSO.

As to `Cc1cccn2c(=O)cc(COc3ccc(NC(=O)c4cccs4)cc3)nc12` [compound 1454], the “Average Number of hTERT Transcripts” value in data set [1] was found to be 3.99. Further, the “Average Cell Viability after 24 Hours (% DMSO)” value in the data set with viable cells in culture amounted to 97.09 % DMSO.

For the molecule `NNc1ncnc2sc3c(c12)CCCC3` [compound 1455], the “Average Number of hTERT Transcripts” value in data set [1] stood at 130.06. Besides, the “Average Cell Viability after 24 Hours (% DMSO)” value in the data set on viable cells in culture was found to be 84.96 % DMSO.

As to `Nc1c2ccccc2nc2ccccc12` [compound 1456], the “Average Number of hTERT Transcripts” value in data set [1] turned out to be 92.07. In the data set with viable cells in culture, the “Average Cell Viability after 24 Hours (% DMSO)” value turned out to be 57.96 % DMSO.

On to `O=C(CCc1ccccc1)NC(c1cccc([N+](=O)[O-])c1)c1c(O)ccc2ccccc12` (stereo not shown) [compound 1458], for which the “Average Number of hTERT Transcripts” value in data set [1] was 10.26. In the data set with viable cells in culture, the “Average Cell Viability after 24 Hours (% DMSO)” value worked out at 62.79 % DMSO.

Consider `COC(=O)c1ccc(Cl)c2c1C1C=CCC1C(c1cccc(F)c1)N2` (stereo not shown) [compound 1459], for which, in data set [1], the “Average Number of hTERT Transcripts” value is on record as 11.14. Also, the “Average Cell Viability after 24 Hours (% DMSO)” value in the data set on viable cells in culture turned out to be 72.75 % DMSO.

Turning to `Cc1cc(C)c2c3c1C1C=CCC1CN3C(C(=O)O)C1CC=CC21` (stereo not shown) [compound 1460], the “Average Number of hTERT Transcripts” value in data set [1] stood at 46.47. Further, the “Average Cell Viability after 24 Hours (% DMSO)” value in the data set with viable cells in culture was determined as 89.11 % DMSO.

With `CC(=O)Oc1ccc(C2Nc3ccc4ccccc4c3C3C=CCC32)c(OC(C)=O)c1` (stereo not shown) [compound 1461], the “Average Number of hTERT Transcripts” value in data set [1] is reported as 29.65. The “Average Cell Viability after 24 Hours (% DMSO)” value in the data set with viable cells in culture worked out at 55.44 % DMSO.

For the molecule `CC1=NN(c2ccc(C)c(C)c2)C(=O)/C1=C\NNC(=O)c1ccccc1` [compound 1464], the “Average Number of hTERT Transcripts” value in data set [1] is 18.97. Also, the “Average Cell Viability after 24 Hours (% DMSO)” value in the data set on viable cells in culture came out at 67.60 % DMSO.

On to `CC1=NN(c2ccccc2)C(=O)/C1=C\NNC(=O)c1ccccc1` [compound 1465], for which the “Average Number of hTERT Transcripts” value in data set [1] is recorded as 20.29. Moreover, the “Average Cell Viability after 24 Hours (% DMSO)” value in the data set on viable cells in culture worked out at 80.62 % DMSO.

Turning to `Cc1cc(=O)c2c(=O)n(-c3nc4ccccc4s3)[nH]c2[nH]1` [compound 1466], in data set [1], the “Average Number of hTERT Transcripts” value amounted to 97.31. The “Average Cell Viability after 24 Hours (% DMSO)” value in the data set with viable cells in culture is 75.47 % DMSO.

For the molecule `O=C(O)CCc1ccc(-c2ccc(Cl)cc2)o1` [compound 1467], the “Average Number of hTERT Transcripts” value in data set [1] stood at 108.02. For the same molecule, the “Average Cell Viability after 24 Hours (% DMSO)” value in the data set with viable cells in culture came to 79.50 % DMSO.

As for `CC[C@@]1(C2O[C@@H](C3O[C@@](O)(CC)[C@H](C)C[C@@H]3C)C[C@@H]2C)CC[C@H]([C@]2(C)CCC3(C[C@H](O)[C@@H](C)[C@@H]([C@H](C)[C@@H](OC)[C@H](C)C(=O)O)O3)O2)O1` (stereo partly shown) [compound 1469], in data set [1], the “Average Number of hTERT Transcripts” value amounted to 59.72. For the same molecule, the “Average Cell Viability after 24 Hours (% DMSO)” value in the data set on viable cells in culture was 60.18 % DMSO.

With `O=C(c1cnn2c(C(F)(F)F)cc(-c3ccco3)nc12)N1CCCCC1` [compound 1471], the “Average Number of hTERT Transcripts” value in data set [1] is 148.88. Besides, the “Average Cell Viability after 24 Hours (% DMSO)” value in the data set with viable cells in culture is 90.01 % DMSO.

As for `CC(/C=C/C(=O)NO)=C\C(C)C(=O)c1ccc(N(C)C)cc1` (stereo not shown) [compound 1472], in data set [1], the “Average Number of hTERT Transcripts” value is reported as 76.60. Further, the “Average Cell Viability after 24 Hours (% DMSO)” value in the data set with viable cells in culture amounted to 82.14 % DMSO.

With `CC(/C=C/c1ccc(N(C)C)cc1)=N\NC(=N)SC1CC(=O)N(c2ccc(Cl)cc2)C1=O` (stereo not shown) [compound 1473], the “Average Number of hTERT Transcripts” value in data set [1] is reported as 32.72. The “Average Cell Viability after 24 Hours (% DMSO)” value with viable cells in culture worked out at 69.29 % DMSO.

`c1ccc(-n2ncc3c2-c2[nH]c4ccccc4c2CC3)cc1` [compound 1474]: the “Average Number of hTERT Transcripts” value in data set [1] turned out to be 17.37. In addition, the “Average Cell Viability after 24 Hours (% DMSO)” value in the data set on viable cells in culture stood at 80.47 % DMSO.

Take `Clc1ccc(OCc2nn3c(Cc4ccccc4)nnc3s2)c(Cl)c1` [compound 1475]: the “Average Number of hTERT Transcripts” value in data set [1] was 17.56. In addition, the “Average Cell Viability after 24 Hours (% DMSO)” value with viable cells in culture is given as 67.26 % DMSO.

(Values after patent US12404304B1, “Telomerase reverse transcriptase (TERT) expression enhancing compounds and methods for using the same” (Sierra Sciences, LLC, priority 2007, dated 2025).)
